Measurements: ChEMBL document CHEMBL3885861, “Open TG-GATES”

Organism: Rattus norvegicus
Experiment: Open TG-GATES - Regimen: Daily Repeat
Assay type: toxicity, organism-based, Sprague-Dawley
Parameters: regimen Daily Repeat, gender Male, age 6 weeks
Conditions: in vivo, iv, route intravenous injection; for APTT / Bas / Eos / Fbg / Hb / Ht / Lym / MCH / MCHC / MCV / Mono / Neu / PT / Plat / RBC / Ret / WBC: tissue Blood; for KIDNEY_L / KIDNEY_R / KIDNEY_TOTAL: tissue Kidney; for LIVER: tissue Liver; for ALP / ALT / AST / BUN / CRE / Ca / Cl / DBIL / GLC / IP / K / LDH / Na / PL / RALB / TBIL / TC / TG / TP / gamma-GTP: tissue Plasma
[1] = 1000 mg/kg, 72 h, dose level Middle, time 3 day
[2] = 1000 mg/kg, […], dose level Middle, time 7 day
[3] = 1000 mg/kg, […], dose level Middle, time 14 day
[4] = 1000 mg/kg, […], dose level Middle, time 28 day
[5] = 2000 mg/kg, 72 h, dose level High, time 3 day
[6] = 2000 mg/kg, […], dose level High, time 7 day
[7] = 2000 mg/kg, […], dose level High, time 14 day
[8] = 2000 mg/kg, […], dose level High, time 28 day

CC(=O)OCC1=C(C(=O)O)N2C(=O)[C@@H](NC(=O)Cc3cccs3)[C@H]2SC1 [CEPHALOTHIN]
TERMINAL_BW [1]: 236.8 g
APTT [1]: 22.6 s
Bas [1]: 0%
Eos [1]: 1%
Fbg [1]: 308.4 mg/dL
Hb [1]: 13.4 g/dL
Ht [1]: 38.7%
Lym [1]: 87.2%
MCH [1]: 21.3 pg
MCHC [1]: 34.7%
MCV [1]: 61.6 fL
Mono [1]: 2.6%
Neu [1]: 8.2%
PT [1]: 16 s
Plat [1]: 120.2 x10_4/uL
RBC [1]: 630.2 x10_4/ul
Ret [1]: 5%
WBC [1]: 80.1 x10_2/uL
KIDNEY_L [1]: 1 g
KIDNEY_R [1]: 1 g
KIDNEY_TOTAL [1]: 2 g
LIVER [1]: 10.2 g
ALP [1]: 1638.6 IU/L
ALT [1]: 44.6 IU/L
AST [1]: 71.2 IU/L
BUN [1]: 18 mg/dL
CRE [1]: 0.2 mg/dL
Ca [1]: 10.6 mg/dL
Cl [1]: 105.2 meq/L
DBIL [1]: 0 mg/dL
GLC [1]: 160 mg/dL
IP [1]: 7.1 mg/dL
K [1]: 4.5 meq/L
LDH [1]: 147.8 IU/L
Na [1]: 141.2 meq/L
PL [1]: 141.6 mg/dL
RALB [1]: 3 g/dL
TBIL [1]: 0.008 mg/dL
TC [1]: 85.2 mg/dL
TG [1]: 65.8 mg/dL
TP [1]: 5.5 g/dL
gamma-GTP [1]: 1.4 IU/L
TERMINAL_BW [2]: 261.5 g
TERMINAL_BW [3]: 302.8 g
TERMINAL_BW [4]: 376.7 g
APTT [2]: 21.6 s
Bas [2]: 0%
Eos [2]: 1.2%
Fbg [2]: 323 mg/dL
Hb [2]: 13.2 g/dL
Ht [2]: 38%
Lym [2]: 87.2%
MCH [2]: 20.7 pg
MCHC [2]: 34.8%
MCV [2]: 59.3 fL
Mono [2]: 2.2%
Neu [2]: 9%
PT [2]: 17 s
Plat [2]: 135.9 x10_4/uL
RBC [2]: 640.6 x10_4/ul
Ret [2]: 5.5%
WBC [2]: 90.6 x10_2/uL
APTT [3]: 23.4 s
Bas [3]: 0%
Eos [3]: 0.8%
Fbg [3]: 260.8 mg/dL
Hb [3]: 13.9 g/dL
Ht [3]: 39%
Lym [3]: 89.2%
MCH [3]: 20.2 pg
MCHC [3]: 35.6%
MCV [3]: 56.6 fL
Mono [3]: 2.2%
Neu [3]: 6.8%
PT [3]: 16.2 s
Plat [3]: 123.9 x10_4/uL
RBC [3]: 689.8 x10_4/ul
Ret [3]: 5%
WBC [3]: 109.6 x10_2/uL
APTT [4]: 24.8 s
Bas [4]: 0%
Eos [4]: 1.4%
Fbg [4]: 294.4 mg/dL
Hb [4]: 14.9 g/dL
Ht [4]: 40.5%
Lym [4]: 88.2%
MCH [4]: 19.6 pg
MCHC [4]: 36.8%
MCV [4]: 53.1 fL
Mono [4]: 1.8%
Neu [4]: 7.6%
PT [4]: 16.2 s
Plat [4]: 113.8 x10_4/uL
RBC [4]: 762.8 x10_4/ul
Ret [4]: 2.8%
WBC [4]: 98 x10_2/uL
KIDNEY_L [2]: 1.1 g
KIDNEY_R [2]: 1.1 g
KIDNEY_TOTAL [2]: 2.3 g
KIDNEY_L [3]: 1.2 g
KIDNEY_R [3]: 1.3 g
KIDNEY_TOTAL [3]: 2.5 g
KIDNEY_L [4]: 1.4 g
KIDNEY_R [4]: 1.4 g
KIDNEY_TOTAL [4]: 2.8 g
LIVER [2]: 12.2 g
LIVER [3]: 12.7 g
LIVER [4]: 14.6 g
ALP [2]: 1283 IU/L
ALT [2]: 35.4 IU/L
AST [2]: 64.4 IU/L
BUN [2]: 16.2 mg/dL
CRE [2]: 0.2 mg/dL
Ca [2]: 11 mg/dL
Cl [2]: 105.4 meq/L
DBIL [2]: 0.002 mg/dL
GLC [2]: 171.8 mg/dL
IP [2]: 7.3 mg/dL
K [2]: 4.2 meq/L
LDH [2]: 148.4 IU/L
Na [2]: 141.6 meq/L
PL [2]: 134.6 mg/dL
RALB [2]: 3 g/dL
TBIL [2]: 0.02 mg/dL
TC [2]: 70.4 mg/dL
TG [2]: 94.6 mg/dL
TP [2]: 5.6 g/dL
gamma-GTP [2]: 1.8 IU/L
ALP [3]: 1231.6 IU/L
ALT [3]: 35.2 IU/L
AST [3]: 66.4 IU/L
BUN [3]: 15.6 mg/dL
CRE [3]: 0.2 mg/dL
Ca [3]: 10.5 mg/dL
Cl [3]: 106 meq/L
DBIL [3]: 0 mg/dL
GLC [3]: 170.2 mg/dL
IP [3]: 6.7 mg/dL
K [3]: 4.2 meq/L
LDH [3]: 96.2 IU/L
Na [3]: 140.6 meq/L
PL [3]: 143 mg/dL
RALB [3]: 3 g/dL
TBIL [3]: 0.01 mg/dL
TC [3]: 73.6 mg/dL
TG [3]: 109.8 mg/dL
TP [3]: 5.6 g/dL
gamma-GTP [3]: 2.4 IU/L
ALP [4]: 1075.4 IU/L
ALT [4]: 31 IU/L
AST [4]: 62 IU/L
BUN [4]: 16.6 mg/dL
CRE [4]: 0.2 mg/dL
Ca [4]: 10.4 mg/dL
Cl [4]: 106.6 meq/L
DBIL [4]: 0.004 mg/dL
GLC [4]: 175.4 mg/dL
IP [4]: 5.9 mg/dL
K [4]: 4.2 meq/L
LDH [4]: 148 IU/L
Na [4]: 142.4 meq/L
PL [4]: 135.4 mg/dL
RALB [4]: 3.1 g/dL
TBIL [4]: 0.018 mg/dL
TC [4]: 67.6 mg/dL
TG [4]: 116.4 mg/dL
TP [4]: 5.9 g/dL
gamma-GTP [4]: 1.2 IU/L
TERMINAL_BW [5]: 233 g
APTT [5]: 22.3 s
Bas [5]: 0%
Eos [5]: 1.2%
Fbg [5]: 311.4 mg/dL
Hb [5]: 13.7 g/dL
Ht [5]: 38.7%
Lym [5]: 87.2%
MCH [5]: 21.3 pg
MCHC [5]: 35.3%
MCV [5]: 60.3 fL
Mono [5]: 2.2%
Neu [5]: 9%
PT [5]: 16.2 s
Plat [5]: 128.7 x10_4/uL
RBC [5]: 642 x10_4/ul
Ret [5]: 4.9%
WBC [5]: 71.5 x10_2/uL
KIDNEY_L [5]: 1 g
KIDNEY_R [5]: 1 g
KIDNEY_TOTAL [5]: 2.1 g
LIVER [5]: 10.2 g
ALP [5]: 1558.6 IU/L
ALT [5]: 43 IU/L
AST [5]: 72.2 IU/L
BUN [5]: 17.6 mg/dL
CRE [5]: 0.2 mg/dL
Ca [5]: 10.4 mg/dL
Cl [5]: 106 meq/L
DBIL [5]: 0.004 mg/dL
GLC [5]: 173.6 mg/dL
IP [5]: 7.5 mg/dL
K [5]: 4.4 meq/L
LDH [5]: 152.4 IU/L
Na [5]: 141.6 meq/L
PL [5]: 132.8 mg/dL
RALB [5]: 3.1 g/dL
TBIL [5]: 0.03 mg/dL
TC [5]: 80.6 mg/dL
TG [5]: 40.4 mg/dL
TP [5]: 5.5 g/dL
gamma-GTP [5]: 1.8 IU/L
TERMINAL_BW [6]: 255 g
TERMINAL_BW [7]: 294.7 g
TERMINAL_BW [8]: 341.3 g
APTT [6]: 22.8 s
Bas [6]: 0%
Eos [6]: 0.8%
Fbg [6]: 347.2 mg/dL
Hb [6]: 13.4 g/dL
Ht [6]: 38.1%
Lym [6]: 83.8%
MCH [6]: 20.8 pg
MCHC [6]: 35.1%
MCV [6]: 59.4 fL
Mono [6]: 2.4%
Neu [6]: 12.4%
PT [6]: 16.7 s
Plat [6]: 132.5 x10_4/uL
RBC [6]: 642.8 x10_4/ul
Ret [6]: 6.3%
WBC [6]: 96.8 x10_2/uL
APTT [7]: 23.6 s
Bas [7]: 0%
Eos [7]: 1%
Fbg [7]: 269.2 mg/dL
Hb [7]: 14.4 g/dL
Ht [7]: 40.1%
Lym [7]: 84.6%
MCH [7]: 20.7 pg
MCHC [7]: 35.9%
MCV [7]: 57.5 fL
Mono [7]: 2%
Neu [7]: 12%
PT [7]: 16 s
Plat [7]: 117.3 x10_4/uL
RBC [7]: 695.2 x10_4/ul
Ret [7]: 5%
WBC [7]: 118.2 x10_2/uL
APTT [8]: 24.6 s
Bas [8]: 0%
Eos [8]: 1.6%
Fbg [8]: 283.8 mg/dL
Hb [8]: 15.6 g/dL
Ht [8]: 42.2%
Lym [8]: 84.8%
MCH [8]: 19.6 pg
MCHC [8]: 37%
MCV [8]: 52.9 fL
Mono [8]: 2.4%
Neu [8]: 10.8%
PT [8]: 16.1 s
Plat [8]: 100.5 x10_4/uL
RBC [8]: 797.8 x10_4/ul
Ret [8]: 3.2%
WBC [8]: 103.9 x10_2/uL
KIDNEY_L [6]: 1.1 g
KIDNEY_R [6]: 1.1 g
KIDNEY_TOTAL [6]: 2.2 g
KIDNEY_L [7]: 1.2 g
KIDNEY_R [7]: 1.2 g
KIDNEY_TOTAL [7]: 2.4 g
KIDNEY_L [8]: 1.4 g
KIDNEY_R [8]: 1.4 g
KIDNEY_TOTAL [8]: 2.7 g
LIVER [6]: 12 g
LIVER [7]: 12.9 g
LIVER [8]: 13.8 g
ALP [6]: 1549.6 IU/L
ALT [6]: 42.4 IU/L
AST [6]: 71.2 IU/L
BUN [6]: 19.6 mg/dL
CRE [6]: 0.2 mg/dL
Ca [6]: 10.8 mg/dL
Cl [6]: 107.6 meq/L
DBIL [6]: 0 mg/dL
GLC [6]: 169.2 mg/dL
IP [6]: 7 mg/dL
K [6]: 4.5 meq/L
LDH [6]: 152.8 IU/L
Na [6]: 141.6 meq/L
PL [6]: 138.6 mg/dL
RALB [6]: 3 g/dL
TBIL [6]: 0.008 mg/dL
TC [6]: 69.8 mg/dL
TG [6]: 103.2 mg/dL
TP [6]: 5.6 g/dL
gamma-GTP [6]: 2 IU/L
ALP [7]: 1210 IU/L
ALT [7]: 40.6 IU/L
AST [7]: 72 IU/L
BUN [7]: 18.6 mg/dL
CRE [7]: 0.2 mg/dL
Ca [7]: 10.6 mg/dL
Cl [7]: 106.2 meq/L
DBIL [7]: 0 mg/dL
GLC [7]: 176.8 mg/dL
IP [7]: 6.3 mg/dL
K [7]: 4.3 meq/L
LDH [7]: 142.8 IU/L
Na [7]: 141.4 meq/L
PL [7]: 142.4 mg/dL
RALB [7]: 3.1 g/dL
TBIL [7]: 0.018 mg/dL
TC [7]: 73.6 mg/dL
TG [7]: 110.2 mg/dL
TP [7]: 5.8 g/dL
gamma-GTP [7]: 2.4 IU/L
ALP [8]: 899.6 IU/L
ALT [8]: 38 IU/L
AST [8]: 69.2 IU/L
BUN [8]: 16 mg/dL
CRE [8]: 0.2 mg/dL
Ca [8]: 10.4 mg/dL
Cl [8]: 106.2 meq/L
DBIL [8]: 0.002 mg/dL
GLC [8]: 166.8 mg/dL
IP [8]: 5.6 mg/dL
K [8]: 4.1 meq/L
LDH [8]: 105.2 IU/L
Na [8]: 142.6 meq/L
PL [8]: 129.8 mg/dL
RALB [8]: 3.2 g/dL
TBIL [8]: 0.034 mg/dL
TC [8]: 62.4 mg/dL
TG [8]: 93.8 mg/dL
TP [8]: 6.1 g/dL
gamma-GTP [8]: 1.8 IU/L
